Results taken from patent US20040146538A1, “Pharmaceutical composition for oral use comprising an active principle liable to undergo a large first intestinal passage effect” (Gattefosse Holding, priority 2001, published 2004).

System: human intestinal microsomes
Assay: Stability of simvastatin in human intestinal microsomes (first intestinal passage effect)
Settings: 1 mg/ml microsomes, 37° C., 12 μmol
Protocol: The test is carried out in vitro using human intestinal microsomes containing:
0.09 nmol/mg of cytochromes P450,
0.77 nmol/min/mg of cytochromes P450 3 A 4.
1 mg/ml of microsomes is then placed in contact:
with a regenerating system having the following composition:
followed by equilibration at 37° C. for 3 minutes.
100 μl aliquots are mixed with a solution of 400 μl of a 50/50 mixture of ice and acetonitrile at 0, 15, 30, 60, 120 and 180 minutes. Testosterone is tested in parallel as control component.
The conditions for carrying out the HPLC are as follows:
The mass spectrometer used is known under the reference PE SCIEX 150.

Question: C[C@]12CC[C@H]3[C@@H](CCC4=CC(=O)CC[C@@]43C)[C@@H]1CC[C@@H]2O [TESTOSTERONE, Testosterone] was tested. Which Percentage remaining (simvastatin (or testosterone control) remaining, time 0 min) did it give?
Answer: 100%

Question: And the Percentage remaining (time 15 min)?
Answer: completely disappeared

Question: And the Percentage remaining (time 180 min)?
Answer: 0%
